Tests used:
[1] = tested on: Pseudomonas aeruginosa ATCC 27853; assay: Test A: MIC-based assay for potentiation of antibiotics that are known efflux pump substrates; assay type: cell-based; conditions: antibiotic MIC (e.g., clarithromycin and levofloxacin) in presence vs absence of the EPI compound; EPI at 1.6 to 12.5 g/mL in CAMH broth, 24 hours at 37° C.
Excerpt: (§1) The ability of a compound disclosed herein to inhibit a bacterial efflux pump can be determined using a method like Test A or Test B as described in Example 20 and as shown in Table 1. Test A. Minimum Inhibitory Concentration (MIC)-Based Assay for Potentiation of Antibiotics that are Known Efflux Pump Substrates: MIC-based assays were used to evaluate the impact of potential efflux pump inhibiting (EPI) compounds on the MICs of antibiotics (e.g., clarithromycin and levofloxacin) known to be substrates for Gram-negative bacterial efflux pumps. The assays were conducted in accordance with Clinical and Laboratory Standards Institute (CLSI) guidelines for broth microdilution, with the modification that assays were conducted in the presence and absence of the test EPI compounds. […] Log-phase Gram-negative bacteria were added to 96-well microtiter plates (at 5×10^5 colony forming units (CFU) per mL) containing two-fold serial dilutions of antibiotic in CAMH broth either in the absence or presence of the test EPI compounds. In all assays, each serial dilution of antibiotic was present in duplicate. The final volume in each well was 0.1 mL, and the microtiter plates were incubated aerobically for 24 hours at 37° C. […] The following Gram-negative bacterial strains were included in these assays: Pseudomonas aeruginosa ATCC 27853.

[2] = tested on: Escherichia coli ATCC 25922; assay: as above; assay type: cell-based; conditions: antibiotic MIC (e.g., clarithromycin and levofloxacin) in presence vs absence of the EPI compound; EPI at 1.6 to 12.5 μg/mL in CAMH broth, 24 hours at 37° C.
Excerpt: as §1, with “Escherichia coli” for “Pseudomonas aeruginosa”, “25922” for “27853.”

In the case of `Cl.Cl.Cl.NCCC[C@H](N)CNCc1cc(C(F)(F)F)cc(C(F)(F)F)c1` [Example 1, (S)—N^1-(3,5-bis(trifluoromethyl)benzyl)pentane-1,2,5-triaminium Chloride], the “Enhanced Activity in P. aeruginosa” value [1] was under 2x and the “Enhanced Activity in E. coli” value [2] was at least 2x.
In the case of `CC(C)(C)c1cc(CNC[C@@H](N)CCCN)cc(C(C)(C)C)c1.Cl.Cl.Cl` [Example 2, (S)—N^1-(3,5-di-tert-butylbenzyl)pentane-1,2,5-triaminium Chloride], the “Enhanced Activity in P. aeruginosa” value [1] was under 2x and the “Enhanced Activity in E. coli” value [2] was at least 8x.
`Cl.Cl.Cl.NCCC[C@H](N)CNCCc1cc(C(F)(F)F)cc(C(F)(F)F)c1` [Example 3, (S)—N^1-(3,5-bis(trifluoromethyl)phenethyl)pentane-1,2,5-triaminium chloride] was tested, and the “Enhanced Activity in P. aeruginosa” value [1] was at least 2x and the “Enhanced Activity in E. coli” value [2] was at least 4x.
With `CC(N)CC[C@H](N)CNCc1cc(C(F)(F)F)cc(C(F)(F)F)c1.Cl.Cl.Cl` (stereo partly drawn) [Example 4, (2S)—N^1-(3,5-bis(trifluoromethyl)benzyl)hexane-1,2,5-triaminium Chloride] the “Enhanced Activity in P. aeruginosa” value [1] was under 2x and the “Enhanced Activity in E. coli” value [2] was under 2x.
`CC(C)C(N)CC[C@H](N)CNCc1cc(-c2ccc(F)cc2)cc(-c2ccc(F)cc2)c1.Cl.Cl.Cl` (stereo partly drawn) [Example 5, (2S)—N^1-((4,4″-difluoro-[1,1′:3′,1″-terphenyl]-5′-yl)methyl)-6-methylheptane-1,2,5-triaminium chloride] was tested, and the “Enhanced Activity in P. aeruginosa” value [1] was at least 2x and the “Enhanced Activity in E. coli” value [2] was 32 x.
For `Cl.Cl.Cl.NCCC[C@H](N)CNCc1cc(-c2ccc(F)cc2)cc(-c2ccc(F)cc2)c1` [Example 6, (S)—N1-((4,4″-difluoro-[1,1′:3′,1″-terphenyl]-5′-yl)methyl)pentane-1,2,5-triaminium chloride], the “Enhanced Activity in P. aeruginosa” value [1] was at least 16x and the “Enhanced Activity in E. coli” value [2] was at least 512x.
In the case of `Cl.Cl.Cl.NCCN(CCN)Cc1cc(-c2ccc(F)cc2)cc(-c2ccc(F)cc2)c1` [Example 7, N1-(2-ammonioethyl)-N1-((4,4″-difluoro-[1,1′:3′,1″-terphenyl]-5′-yl)methyl)ethane-1,2-diaminium chloride], the “Enhanced Activity in P. aeruginosa” value [1] was at least 16x and the “Enhanced Activity in E. coli” value [2] was at least 512x.
With `Cl.Cl.Cl.NCCN(CCN)Cc1cc(C(F)(F)F)cc(C(F)(F)F)c1` [Example 8, 2-ammonio-1-((2-ammonioethyl)(3,5-bis(trifluoromethyl)benzyl)-14-azanyl)ethan-1-ylium chloride] the “Enhanced Activity in P. aeruginosa” value [1] was under 2x and the “Enhanced Activity in E. coli” value [2] was under 2x.
With `CC(C)(CNC[C@@H](N)CCCN)c1cc(-c2ccc(F)cc2)cc(-c2ccc(F)cc2)c1.Cl.Cl.Cl` [Example 9, (S)—N^1-(2-(4,4″-difluoro-[1,1′:3′,1″-terphenyl]-5′-yl)-2-methylpropyl)pentane-1,2,5-triaminium chloride] the “Enhanced Activity in P. aeruginosa” value [1] was at least 2x and the “Enhanced Activity in E. coli” value [2] was at least 128 x.
For `Cl.Cl.Cl.NCCC[C@H](N)CNCCc1cc(-c2ccc(F)cc2)cc(-c2ccc(F)cc2)c1` [Example 10, (S)—N1-(2-(4,4″-difluoro-[1,1′:3′,1″-terphenyl]-5′-yl)ethyl)pentane-1,2,5-triaminium chloride], the “Enhanced Activity in P. aeruginosa” value [1] was at least 64x and the “Enhanced Activity in E. coli” value [2] was at least 1024x.
`Cl.Cl.NCCC[C@@H](N)COc1cc(-c2ccc(F)cc2)cc(-c2ccc(F)cc2)c1` [Example 11, (R)-5-((4,4″-difluoro-[1,1′:3′,1″-terphenyl]-5′-yl)oxy)pentane-1,4-diaminium chloride] was tested, and the “Enhanced Activity in P. aeruginosa” value [1] was at least 16x and the “Enhanced Activity in E. coli” value [2] was at least 1024 x.
`Cl.Cl.NC[C@H](N)CCc1cc(-c2ccc(F)cc2)cc(-c2ccc(F)cc2)c1` [Example 12, (R)-4-(4,4″-difluoro-[1,1′:3′,1″-terphenyl]-5′-yl)butane-1,2-diaminium chloride] was tested, and the “Enhanced Activity in P. aeruginosa” value [1] was under 2x and the “Enhanced Activity in E. coli” value [2] was at least 32x.
With `Cl.Cl.NCCC[C@H](N)COc1cc(-c2ccc(F)cc2)cc(-c2ccc(F)cc2)c1` [Example 13, (S)-5-((4,4″-difluoro-[1,1′:3′,1″-terphenyl]-5′-yl)oxy)pentane-1,4-diaminium chloride] the “Enhanced Activity in P. aeruginosa” value [1] was under 2x and the “Enhanced Activity in E. coli” value [2] was 256x.
With `CC(C)C(N)CC[C@H](N)COc1cc(-c2ccc(F)cc2)cc(-c2ccc(F)cc2)c1.Cl.Cl` (stereo partly drawn) [Example 14, (2S)-1-((4,4″-difluoro-[1,1′:3′,1″-terphenyl]-5′-yl)oxy)-6-methylheptane-2,5-diaminium] the “Enhanced Activity in P. aeruginosa” value [1] was under 2x and the “Enhanced Activity in E. coli” value [2] was under 2x.
`NCCC[C@H](N)CNCc1cc(-c2ccccc2)cc(-c2ccccc2)c1` [Example 15, (S)—N1-([1,1′:3′,1″-terphenyl]-5′-ylmethyl)pentane-1,2,5-triaminium Chloride] was tested, and the “Enhanced Activity in P. aeruginosa” value [1] was at least 16x and the “Enhanced Activity in E. coli” value [2] was at least 128x.
`Cl.Cl.NCCC[C@H](N)COc1cc(-c2ccc(C(F)(F)F)cc2)cc(-c2ccc(C(F)(F)F)cc2)c1` [Example 16, (S)-5-((4,4″-bis(trifluoromethyl)-[1,1′:3′,1″-terphenyl]-5′-yl)oxy)pentane-1,4-diaminium chloride] was tested, and the “Enhanced Activity in P. aeruginosa” value [1] was at least 2x and the “Enhanced Activity in E. coli” value [2] was under 2x.
`COc1ccc(-c2cc(OC[C@@H](N)CCCN)cc(-c3ccc(OC)cc3)c2)cc1.Cl.Cl` [Example 17, (S)-5-((4,4″-dimethoxy-[1,1′:3′,1″-terphenyl]-5′-yl)oxy)pentane-1,4-diaminium chloride] was tested, and the “Enhanced Activity in P. aeruginosa” value [1] was at least 2x and the “Enhanced Activity in E. coli” value [2] was at least 1024x.
With `Cl.Cl.NCCC[C@@H](N)COc1cc(-c2cccc(F)c2)cc(-c2cccc(F)c2)c1` [Example 18, (R)-5-((3,3″-difluoro-[1,1′:3′,1″-terphenyl]-5′-yl)oxy)pentane-1,4-diaminium chloride] the “Enhanced Activity in P. aeruginosa” value [1] was at least 1x and the “Enhanced Activity in E. coli” value [2] was at least 512x.
`Cl.Cl.NCCC[C@@H](N)COc1cc(-c2ccc(F)c(F)c2)cc(-c2ccc(F)c(F)c2)c1` [Example 19, (R)-5-((3,3″,4,4″-tetrafluoro-[1,1′:3′,1″-terphenyl]-5′-yl)oxy)pentane-1,4-diaminium chloride] was tested, and the “Enhanced Activity in P. aeruginosa” value [1] was at least 1x and the “Enhanced Activity in E. coli” value [2] was at least 2x.
